Measurements published in ChEMBL document CHEMBL1201862, “PubChem BioAssay data set” (2004).
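96-well plates; 48 h exposure; 5 concentrations. Endpoints by linear interpolation between flanking doses. Not reached: highest tested concentration assigned. GI50 marks 50% less growth.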 Activity calls are given as the source filed them. No stated cut-off is given here; in the data, active = GI50 up to about 1.1 µM and inactive = higher. Where a SMILES comes first, the peptide text is derived from it. The star is where a group is joined. Boc = CC(C)(C)OC(=O)*

Tests used:
Assay in all cases: NCI tumour cell line growth inhibition, 48 h
HCC 2998 = tested on: HCC 2998
SW-620 = tested on: SW-620
Malme-3M = tested on: Malme-3M
SN12C = tested on: SN12C
COLO 205 = tested on: COLO 205
SF-539 = tested on: SF-539
IGROV-1 = tested on: IGROV-1
OVCAR-5 = tested on: OVCAR-5
MDA-MB-435 = tested on: MDA-MB-435
LOX IMVI = tested on: LOX IMVI
HT-29 = tested on: HT-29
U-251 = tested on: U-251
UACC-257 = tested on: UACC-257
SK-MEL-28 = tested on: SK-MEL-28
TK-10 = tested on: TK-10
NCI-H460 = tested on: NCI-H460
PC-3 = tested on: PC-3
OVCAR-8 = tested on: OVCAR-8
UO-31 = tested on: UO-31
SF-268 = tested on: SF-268

SMILES	GI50 (HCC 2998)	GI50 (SW-620)	GI50 (Malme-3M)	GI50 (SN12C)	GI50 (COLO 205)	GI50 (SF-539)	GI50 (IGROV-1)	GI50 (OVCAR-5)	GI50 (MDA-MB-435)	GI50 (LOX IMVI)	GI50 (HT-29)	GI50 (U-251)	GI50 (UACC-257)	GI50 (SK-MEL-28)	GI50 (TK-10)	GI50 (NCI-H460)	GI50 (PC-3)	GI50 (OVCAR-8)	GI50 (UO-31)	GI50 (SF-268)
COC(=O)C1=C(OC(=O)/C=C/c2ccccc2)C(C(=O)OC)[C@@]2(O)[C@@H](C(=O)OC)[C@H](C)C[C@@H]1[C@@H]2C(=O)OC (stereo partly specified)	19.4 µM (inactive)	28.3 µM (inactive)	15.8 µM (inactive)	13.9 µM (inactive)	28.8 µM (inactive)	19.8 µM (inactive)	25 µM (inactive)	11.7 µM (inactive)	15.6 µM (inactive)	22.1 µM (inactive)	24.7 µM (inactive)	18.8 µM (inactive)	20.1 µM (inactive)	28.8 µM (inactive)	34.4 µM (inactive)	17 µM (inactive)	25.5 µM (inactive)	14.2 µM (inactive)	17 µM (inactive)	24.2 µM (inactive)
CCOP1(=O)CC(C)=C(Cl)C(O)C1 (stereo unspecified)	> 100 µM (inactive)	> 100 µM (inactive)	> 100 µM (inactive)	> 100 µM (inactive)	> 100 µM (inactive)	> 100 µM (inactive)	> 100 µM (inactive)	> 100 µM (inactive)	> 100 µM (inactive)	> 100 µM (inactive)	> 100 µM (inactive)	> 100 µM (inactive)	> 100 µM (inactive)	> 100 µM (inactive)	> 100 µM (inactive)	> 100 µM (inactive)	> 100 µM (inactive)	> 100 µM (inactive)	> 100 µM (inactive)	> 100 µM (inactive)
Cc1ccc(/N=N/c2c(O)ccc3cc(S(=O)(=O)O)cc(S(=O)(=O)O)c23)cc1	> 100 µM (inactive)	> 100 µM (inactive)	> 100 µM (inactive)	> 100 µM (inactive)	> 100 µM (inactive)	> 100 µM (inactive)	> 100 µM (inactive)	> 100 µM (inactive)	> 100 µM (inactive)	–	–	> 100 µM (inactive)	> 100 µM (inactive)	> 100 µM (inactive)	> 100 µM (inactive)	> 100 µM (inactive)	> 100 µM (inactive)	> 100 µM (inactive)	> 100 µM (inactive)	> 100 µM (inactive)
O=C1C(NCCF)=C(Cl)C(=O)c2ncccc21	1.21 µM (inactive)	0.378 µM (active)	0.402 µM (active)	1.02 µM (active)	–	1 µM (active)	1.39 µM (inactive)	2.04 µM (inactive)	0.188 µM (active)	0.284 µM (active)	2.47 µM (inactive)	0.689 µM (active)	1.4 µM (inactive)	0.701 µM (active)	1.81 µM (inactive)	0.429 µM (active)	1.29 µM (inactive)	0.8 µM (active)	–	1.5 µM (inactive)
CCOC(=O)c1c(NC(=O)c2ccccc2)c(C#N)c2n1CCCCC2	> 100 µM (inactive)	–	> 100 µM (inactive)	> 100 µM (inactive)	> 100 µM (inactive)	–	> 100 µM (inactive)	> 100 µM (inactive)	> 100 µM (inactive)	> 100 µM (inactive)	> 100 µM (inactive)	> 100 µM (inactive)	> 100 µM (inactive)	> 100 µM (inactive)	> 100 µM (inactive)	> 100 µM (inactive)	> 100 µM (inactive)	> 100 µM (inactive)	> 100 µM (inactive)	> 100 µM (inactive)
CN(C)Cc1cc(C(=O)/C=C/c2ccc(/C=C/C(=O)c3cc(CN(C)C)c(O)c(CN(C)C)c3)cc2)cc(CN(C)C)c1O	16.9 µM (inactive)	20.8 µM (inactive)	34.6 µM (inactive)	28.9 µM (inactive)	14.4 µM (inactive)	24.4 µM (inactive)	35.2 µM (inactive)	17.4 µM (inactive)	24 µM (inactive)	11.9 µM (inactive)	13.5 µM (inactive)	15.6 µM (inactive)	24.8 µM (inactive)	29 µM (inactive)	36.8 µM (inactive)	–	15.1 µM (inactive)	49.3 µM (inactive)	71.8 µM (inactive)	27.5 µM (inactive)
Cc1nn(C(=O)Cc2ccccc2)c2c1C(c1ccccc1[N+](=O)[O-])SC(=N)N2 (stereo unspecified)	> 100 µM (inactive)	> 100 µM (inactive)	> 100 µM (inactive)	> 100 µM (inactive)	> 100 µM (inactive)	> 100 µM (inactive)	> 100 µM (inactive)	–	> 100 µM (inactive)	> 100 µM (inactive)	> 100 µM (inactive)	–	> 100 µM (inactive)	> 100 µM (inactive)	> 100 µM (inactive)	> 100 µM (inactive)	> 100 µM (inactive)	> 100 µM (inactive)	> 100 µM (inactive)	> 100 µM (inactive)
COc1ccc(Nc2nc3cc(C(F)(F)F)ccc3nc2C(=O)O)cc1	14.1 µM (inactive)	21.6 µM (inactive)	18.2 µM (inactive)	27 µM (inactive)	21.3 µM (inactive)	–	24 µM (inactive)	24.2 µM (inactive)	22.5 µM (inactive)	16.1 µM (inactive)	30.3 µM (inactive)	13 µM (inactive)	19.1 µM (inactive)	31.7 µM (inactive)	34.4 µM (inactive)	23.9 µM (inactive)	20.4 µM (inactive)	19.3 µM (inactive)	13.6 µM (inactive)	17.6 µM (inactive)
C=CCOCn1ccc(N)nc1=O	> 100 µM (inactive)	> 100 µM (inactive)	> 100 µM (inactive)	> 100 µM (inactive)	> 100 µM (inactive)	> 100 µM (inactive)	> 100 µM (inactive)	–	> 100 µM (inactive)	> 100 µM (inactive)	> 100 µM (inactive)	–	> 100 µM (inactive)	> 100 µM (inactive)	> 100 µM (inactive)	–	> 100 µM (inactive)	> 100 µM (inactive)	> 100 µM (inactive)	> 100 µM (inactive)
COC(=O)C(Cc1c[nH]c2ccccc12)NC(=O)C(Cc1c[nH]c2ccccc12)NC(=O)C(Cc1c[nH]c2ccccc12)NC(=O)C(Cc1c[nH]c2ccccc12)NC(=O)C(Cc1c[nH]c2ccccc12)NC(=O)C(Cc1c[nH]c2ccccc12)NC(=O)C(Cc1c[nH]c2ccccc12)NC(=O)C(Cc1c[nH]c2ccccc12)NC(=O)OC(C)(C)C (stereo unspecified) (Boc-WWWWWWWW-OMe; configuration not given here)	> 100 µM (inactive)	> 100 µM (inactive)	53.2 µM (inactive)	72.8 µM (inactive)	–	–	19.8 µM (inactive)	37.8 µM (inactive)	> 100 µM (inactive)	63.5 µM (inactive)	> 100 µM (inactive)	74.6 µM (inactive)	43.5 µM (inactive)	33.3 µM (inactive)	34 µM (inactive)	67.6 µM (inactive)	65.5 µM (inactive)	> 100 µM (inactive)	53.7 µM (inactive)	> 100 µM (inactive)
CCOC(=O)CN1C(=O)c2ccc(NC(=O)C(=O)O)cc2S1(=O)=O	> 100 µM (inactive)	> 100 µM (inactive)	> 100 µM (inactive)	> 100 µM (inactive)	> 100 µM (inactive)	–	> 100 µM (inactive)	> 100 µM (inactive)	> 100 µM (inactive)	> 100 µM (inactive)	> 100 µM (inactive)	> 100 µM (inactive)	> 100 µM (inactive)	> 100 µM (inactive)	> 100 µM (inactive)	> 100 µM (inactive)	> 100 µM (inactive)	> 100 µM (inactive)	> 100 µM (inactive)	> 100 µM (inactive)
CC(=O)OCC1OC(O[C@@H]2c3c(O)c4c(c(O)c3C3=C(NN(c5ccc([N+](=O)[O-])cc5[N+](=O)[O-])[Se]3=O)[C@@]2(C)O)C(=O)c2ccccc2C4=O)C(OC(C)=O)C(OC(C)=O)C1OC(C)=O (stereo partly specified)	0.228 µM (active)	0.101 µM (active)	0.157 µM (active)	0.157 µM (active)	0.175 µM (active)	–	0.303 µM (active)	0.51 µM (active)	0.145 µM (active)	0.147 µM (active)	0.239 µM (active)	0.14 µM (active)	0.376 µM (active)	0.242 µM (active)	0.497 µM (active)	0.192 µM (active)	0.261 µM (active)	0.191 µM (active)	0.239 µM (active)	0.139 µM (active)
O=C(/C=C1\N=C(c2ccccc2)N(c2ccc3c(c2)Sc2cc(N4C(=O)/C(=C/C(=O)/C=C/c5ccccc5)N=C4c4ccccc4)ccc2N3)C1=O)/C=C/c1ccccc1	> 100 µM (inactive)	67.6 µM (inactive)	26.1 µM (inactive)	36.8 µM (inactive)	> 100 µM (inactive)	–	37.2 µM (inactive)	22.4 µM (inactive)	22 µM (inactive)	30.5 µM (inactive)	> 100 µM (inactive)	24.2 µM (inactive)	27.4 µM (inactive)	65.2 µM (inactive)	45.1 µM (inactive)	58.7 µM (inactive)	19.5 µM (inactive)	42.5 µM (inactive)	81.1 µM (inactive)	69.5 µM (inactive)
C[C@@H]1S[C@H](c2c(F)cccc2Cl)n2c1nc1ccccc12	13.6 µM (inactive)	13.7 µM (inactive)	14.8 µM (inactive)	15.6 µM (inactive)	11.2 µM (inactive)	15 µM (inactive)	17.2 µM (inactive)	33.4 µM (inactive)	12.6 µM (inactive)	12.5 µM (inactive)	14.7 µM (inactive)	10.8 µM (inactive)	14.1 µM (inactive)	13.7 µM (inactive)	28.5 µM (inactive)	–	6.84 µM (inactive)	19 µM (inactive)	11.9 µM (inactive)	15.1 µM (inactive)
